The values below come from US8609399B2, “Reducing insoluble deposit formation in ethanol production” (Global Process Technologies, Inc., priority 2007, dated 2013).

The data set in a line: Solubility in Presence of Ethanol (temperature at which a precipitate became visible). The format is physicochemical. Particulars: 800 ppm Mg2+ and 3600 ppm phytic acid. The source says: In the table, the water and ethanol columns indicate the temperature at which a precipitate became visible in a solution containing 800 ppm Mg^2+ and 3600 ppm phytic acid.

magnesium phytate: the “Temperature (° C.; in 13% ethanol/87% water solution) at which a precipitate became visible” value came to 40 °C (pH 4.35), 30 °C (pH 4.53) and 21 °C (pH 4.6). Besides, the “Temperature (° C.; in 100% water solution) at which a precipitate became visible” value by setting is: (pH 4.52) 80 °C; (pH 4.97) 60 °C; (pH 5.36) 40 °C; (pH 5.6) 21 °C.
